The text below walks through data of patent US9334263B2, “Compositions useful for treating disorders related to kit” (BLUEPRINT MEDICINES CORPORATION, priority 2013, dated 2016).

One test addresses T1, wild type Kit (Homo sapiens, UniProt P10721).
T1 construct: purchased Carna Bioscience 08-156
The test is described as follows: Kit wild type assay at Km (Caliper electrophoretic mobility shift). It counts as biochemical. The note with it: 400 uM ATP, 25 C, 90 minutes; read-out: WT KIT. In outline: (§1)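 Read-out is the ratio of phosphorylated to unphosphorylated fluorescent peptide, resolved by mobility shift on a Caliper EZ Reader 2.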

The target in another test is T2, PDGFRA D842V (Homo sapiens, UniProt P16234, D842V).
T2 construct: purchased ProQinase 0761-0000-1
The experiment in a line: PDGFRA D842V assay at Km (Caliper electrophoretic mobility shift). The note with it: 15 uM ATP, 25 C, 90 minutes; read-out: PDFGRA D842V. In kind it is biochemical. How it is done: In order to assess the activity of chemical compounds against the relevant kinase of interest, the Caliper LifeSciences electrophoretic mobility shift technology platform is used. Fluorescently labeled substrate peptide is incubated in the presence of kinase and ATP so that a […] proportion of the peptide is phosphorylated. At the end of the reaction, the mix of phosphorylated (product) and non-phosphorylated (substrate) peptides are passed through the microfluidic system of the Caliper EZ Reader 2, under an applied potential difference. The presence of the phosphate group on the product peptide provides a difference in mass and charge between those of the substrate peptide, resulting in a separation of the substrate and product pools in the sample. As the pools pass a LEDS within the instrument, these pools are detected and resolved as separate peaks. The ratio between these peaks therefore reflects the activity of the chemical matter at that concentration in that well, under those conditions.
The reaction was stopped by the addition of 70 ul of Stop buffer (100 mM HEPES pH 7.5, 0.015% Brij 35, 35 mM EDTA and 0.2% of Coating Reagent 3 (Caliper Lifesciences)). The plate was then read on a Caliper EZReader 2 (protocol settings: −1.9 psi, upstream voltage −500, downstream voltage −3000, post sample sip 38 s).

For the next test, the target named is T3, D816V Kit (Homo sapiens, UniProt P10721, D816V).
T3 construct: purchased Carna Bioscience 08-156
The test is described as follows: Kit D816V assay at Km (Caliper electrophoretic mobility shift). In kind it is biochemical. The conditions noted are these: 15 uM ATP, 25 C, 90 minutes. In outline:
as §1

In test [1] the target is T4, Kit D816V (HMC1.2 cells, Kit V560G and D816V) (Homo sapiens, UniProt P10721, D816V/V560G).
T4 construct: endogenous in cells; host or cells: HMC1.2 cells
The test is described as follows: HMC1.2 autophosphorylation assay (AlphaLISA, phospho-Y719 c-Kit). It counts as cell-based. The conditions noted are these: Kit autophosphorylation at tyrosine 719, 90 minutes, read-out: Cellular Activity. In outline:
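AlphaScreen signal comes from lysed HMC1.2 cells incubated with phospho-Y719 and total c-Kit antibodies (15 nM final), acceptor beads and then streptavidin donor beads, 2 h each at room temperature. Beforehand, cells deprived of serum overnight received compound for 90 min as a 10-point series, 25 uM–95.4 pM, 0.25% DMSO.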
For orientation: Bead proximity is the source of the signal in Alpha formats.

In a further test the test system is P815 tumor cells. The experiment in a line: P815 mastocytoma xenograft model. The conditions noted are these: female BALB/c nude mice, P815 s.c., p.o. BID x 10. In kind it is in vivo, mouse. As for the experimental part:
Compound 165 and Dasatinib were evaluated in a P815 mastocytoma xenograft model. P815 tumor cells (ATCC, Manassas, Va., cat # ATCC® TIB-64) were maintained in vitro as a suspension and monolayer culture in RPMI1640 medium supplemented with 10% fetal calf serum at 37° C. in an atmosphere of 5% CO2 in air. The tumor cells were sub-cultured twice weekly by trypsin-EDTA treatment. The cells growing in an exponential growth phase were harvested and counted for tumor inoculation.
Tumor sizes were measured every other day in two dimensions using a caliper, and the volume was expressed in mm^3 using the formula: V=0.5 a×b^2 where a and b were the long and short diameters of the tumor, respectively. […] T-C was calculated with T as the median time (in days) required for the treatment group tumors to reach a predetermined size (e.g., 1000 mm^3), and C as the median time (in days) for the control group tumors to reach the same size. […]
TGI was calculated for each group using the formula: TGI (%)=[1−(Ti−T0)/(Vi−V0)]×100; Ti is the average tumor volume of a treatment group on a given day, T0 is the average tumor volume of the treatment group on the day of treatment start, Vi is the average tumor volume of the vehicle control group on the same day with Ti, and V0 is the average tumor volume of the vehicle group on the day of treatment start. Tumor weight was measured at the endpoint. […]

SMILES strings stand for the structures. Entries after “also recorded” stand apart in the source; their conditions may differ. A value given as a limit tells only on which side of the number the result lay.

T3 sequence (P10721 26-976 D816V): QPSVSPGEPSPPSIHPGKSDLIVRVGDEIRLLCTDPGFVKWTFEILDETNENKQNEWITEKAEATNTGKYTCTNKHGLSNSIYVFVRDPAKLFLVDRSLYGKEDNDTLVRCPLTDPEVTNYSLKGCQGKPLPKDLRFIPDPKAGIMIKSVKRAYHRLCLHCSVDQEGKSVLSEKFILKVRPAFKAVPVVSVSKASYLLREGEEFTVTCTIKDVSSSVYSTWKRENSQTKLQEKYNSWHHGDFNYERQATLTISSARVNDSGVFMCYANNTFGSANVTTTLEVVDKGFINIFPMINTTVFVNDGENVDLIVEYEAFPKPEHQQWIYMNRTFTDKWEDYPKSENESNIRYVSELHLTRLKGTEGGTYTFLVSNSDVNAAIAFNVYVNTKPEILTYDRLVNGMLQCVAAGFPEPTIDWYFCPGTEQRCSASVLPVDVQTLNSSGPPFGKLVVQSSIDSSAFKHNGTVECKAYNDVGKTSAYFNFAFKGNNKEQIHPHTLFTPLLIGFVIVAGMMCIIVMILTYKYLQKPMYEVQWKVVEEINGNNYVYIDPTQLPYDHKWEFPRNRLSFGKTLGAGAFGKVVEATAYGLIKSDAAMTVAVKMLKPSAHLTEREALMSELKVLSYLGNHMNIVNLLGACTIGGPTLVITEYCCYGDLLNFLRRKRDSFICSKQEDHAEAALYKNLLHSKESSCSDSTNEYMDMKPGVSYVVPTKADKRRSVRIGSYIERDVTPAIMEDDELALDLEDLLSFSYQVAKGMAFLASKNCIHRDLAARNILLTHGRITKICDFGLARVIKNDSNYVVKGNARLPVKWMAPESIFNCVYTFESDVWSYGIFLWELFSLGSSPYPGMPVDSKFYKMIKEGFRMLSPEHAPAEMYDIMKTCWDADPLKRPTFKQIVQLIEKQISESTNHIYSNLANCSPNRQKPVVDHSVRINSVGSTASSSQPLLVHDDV
T2 sequence (P16234 24-1089 D842V): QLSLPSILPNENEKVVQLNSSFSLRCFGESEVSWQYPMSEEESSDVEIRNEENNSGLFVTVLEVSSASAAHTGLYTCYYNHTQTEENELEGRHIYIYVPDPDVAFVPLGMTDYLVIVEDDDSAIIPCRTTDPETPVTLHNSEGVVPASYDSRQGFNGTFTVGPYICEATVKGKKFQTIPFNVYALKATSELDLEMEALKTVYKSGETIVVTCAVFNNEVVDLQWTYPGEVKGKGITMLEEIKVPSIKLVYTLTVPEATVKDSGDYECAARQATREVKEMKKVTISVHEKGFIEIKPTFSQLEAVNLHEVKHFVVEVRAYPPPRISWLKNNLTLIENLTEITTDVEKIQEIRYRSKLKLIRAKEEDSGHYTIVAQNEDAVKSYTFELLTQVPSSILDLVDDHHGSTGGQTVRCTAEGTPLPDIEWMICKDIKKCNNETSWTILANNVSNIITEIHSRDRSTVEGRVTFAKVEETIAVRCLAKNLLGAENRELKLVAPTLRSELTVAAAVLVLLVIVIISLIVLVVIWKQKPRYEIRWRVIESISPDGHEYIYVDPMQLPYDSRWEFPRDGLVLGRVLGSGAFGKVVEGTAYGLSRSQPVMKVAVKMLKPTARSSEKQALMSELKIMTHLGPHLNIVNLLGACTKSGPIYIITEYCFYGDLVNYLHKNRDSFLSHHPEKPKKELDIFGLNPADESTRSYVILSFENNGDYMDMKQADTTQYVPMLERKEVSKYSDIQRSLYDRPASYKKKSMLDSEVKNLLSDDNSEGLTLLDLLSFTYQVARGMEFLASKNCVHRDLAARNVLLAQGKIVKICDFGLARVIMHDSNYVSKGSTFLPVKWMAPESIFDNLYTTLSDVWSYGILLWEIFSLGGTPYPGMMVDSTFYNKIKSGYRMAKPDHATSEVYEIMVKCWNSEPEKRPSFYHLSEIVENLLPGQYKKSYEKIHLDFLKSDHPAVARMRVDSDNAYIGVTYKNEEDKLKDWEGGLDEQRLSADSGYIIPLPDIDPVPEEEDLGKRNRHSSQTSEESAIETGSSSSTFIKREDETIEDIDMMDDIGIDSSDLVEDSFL
T1 sequence (P10721 26-976): as the sequence (P10721 26-976 D816V) above, with V791D counted along it
T4 sequence (P10721 26-976 V560G/D816V): as the sequence (P10721 26-976 D816V) above, with V535G counted along it

In the case of `Oc1nc(N2CCN(c3ncnc(Nc4cnn(CC5CCNCC5)c4)n3)CC2)ncc1Cc1ccccc1` [Compound 179], the IC50 on wild type Kit is under 10 nM; on PDGFRA D842V, under 1 nM; at D816V Kit, under 1 nM; in test [1] it was 1000 to 10000 nM.

`Nc1cccc(Nc2ncnc(N3CCN(c4ncc(Cc5ccccc5)cn4)CC3)n2)c1` [Compound 12]: the IC50 was under 10 nM at wild type Kit, under 1 nM on PDGFRA D842V, under 1 nM at D816V Kit and under 10 nM in test [1].

As to `CC(=O)Nc1cccc(Nc2ncnc(N3CCN(c4ncc(Cc5ccccc5)cn4)CC3)n2)c1` [Compound 47], the IC50 at wild type Kit is 11 to 100 nM; at PDGFRA D842V, under 1 nM; at D816V Kit it was under 1 nM; in test [1], 10 to 100 nM.

As to `CN1CCN(c2cccc(Nc3ncnc(N4CCN(c5ncc(Cc6ccccc6)cn5)CC4)n3)c2)CC1` [Compound 157], the IC50 at wild type Kit is under 10 nM; on PDGFRA D842V it was 1.01 to 10 nM; on D816V Kit, under 1 nM; in test [1] it was 100 to 1000 nM.

Regarding `O[C@@H]1CCCN(c2ccc(Nc3ncnc(N4CCN(c5ncc(Cc6ccccc6)cn5)CC4)n3)cc2)C1` [Compound 165], the IC50 on wild type Kit lay within 100 to 1000 nM; on PDGFRA D842V it was 1.01 to 10 nM; on D816V Kit, 1.01 to 10 nM; in test [1], 10 to 100 nM. For the same compound, the “tumor growth inhibition / antitumor activity” value in the test with P815 tumor cells is listed as “effective in inhibiting tumor growth; also recorded: observable antitumor activity”.

As for `CNCCCn1cc(Nc2ncnc(N3CCN(c4ncc(Cc5ccccc5)cn4)CC3)n2)cn1` [Compound 61], the IC50 at wild type Kit is under 10 nM; on PDGFRA D842V, under 1 nM; on D816V Kit, under 1 nM; in test [1] it was 10 to 100 nM.

Take `c1ccc(Cc2cnc(N3CCN(c4ncnc(Nc5cnn(CC6CCNC6)c5)n4)CC3)nc2)cc1` (centres unmarked) [Compound 83]: the IC50 was under 10 nM at wild type Kit, under 1 nM at PDGFRA D842V, under 1 nM at D816V Kit and 10 to 100 nM in test [1].

With `CN(C)CCCn1cc(Nc2ncnc(N3CCN(c4ncc(Cc5ccccc5)cn4)CC3)n2)cn1` [Compound 88], the IC50 is 11 to 100 nM at wild type Kit, under 1 nM on PDGFRA D842V, under 1 nM on D816V Kit and 10 to 100 nM in test [1].

For the compound `CN(C)[C@@H]1CCN(Cc2cccc(Nc3ncnc(N4CCN(c5ncc(Cc6ccccc6)cn5)CC4)n3)c2)C1` [Compound 261], the IC50 on wild type Kit is under 10 nM; on PDGFRA D842V it was under 1 nM; at D816V Kit, under 1 nM; in test [1], 10 to 100 nM.

Consider `Nc1nc(N2CCN(c3ncnc(Nc4ccc5c(c4)CNCC5)n3)CC2)ncc1Cc1ccccc1` [Compound 73], for which the IC50 at wild type Kit is under 10 nM; at PDGFRA D842V, under 1 nM; on D816V Kit, under 1 nM; in test [1], under 10 nM.

`OCc1cccc(Nc2ncnc(N3CCN(c4ncc(Cc5ccccc5)cn4)CC3)n2)c1` [Compound 15]: the IC50 on wild type Kit was 11 to 100 nM; at PDGFRA D842V, under 1 nM; on D816V Kit, under 1 nM; in test [1], 10 to 100 nM.

As for `c1ccc(Cc2cnc(N3CCN(c4ncnc(Nc5cnn([C@@H]6CCNC6)c5)n4)CC3)nc2)cc1` (single isomer, unassigned) [Compound 53], the IC50 on wild type Kit is under 10 nM; on PDGFRA D842V it was under 1 nM; at D816V Kit, under 1 nM; in test [1], 10 to 100 nM.

`CCNc1cccc(Nc2ncnc(N3CCN(c4ncc(Cc5ccccc5)cn4)CC3)n2)c1` [Compound 25]: the IC50 on wild type Kit is 11 to 100 nM; at PDGFRA D842V it was under 1 nM; on D816V Kit, under 1 nM; in test [1], 10 to 100 nM.
